In patent publication US12331038B2, “Hexone glucokinase inhibitor and use thereof” (SHANDONG XUANZHU PHARMA CO., LTD., priority 2019, dated 2025):

Assays:
KHK-C [1] = biological target: T1, KHK-C (Homo sapiens (Human), UniProt P50053); assay: Inhibitory activity against KHK-C kinase in vitro (ADP-Glo), Experimental Protocol II; format: biochemical; conditions: 1 nM KHK-C, 100 μM ATP, 200 μM D-Fructose, control drug top concentration 1000 nM
Experimental: Experimental Protocol II: 1. Compound Dilution • 1) The compounds of the present invention and the control drug were formulated in DMSO to 10 mM as stock solutions for test. • 2) The stock solutions of the compounds of the present invention were diluted by 10-fold to 1 mM, and then further diluted in a 3-fold gradient to 11 concentrations, with the highest concentration being 1 mM. The stock solution of the control drug was diluted by 100-fold to 0.1 mM, and then further diluted in a 3-fold gradient to 11 concentrations, with the highest concentration being 0.1 mM. • 3) 0.1 μL of the compounds of the present invention and the control drug as diluted was transferred with Echo550 to a 384-well plate, in duplicate per concentration, and then centrifuged at 1000 rpm for 1 min. 2. Enzyme Reaction Test • 1) 5 μL of KHK-C kinase working solution was added to the 384-well plate, centrifuged at 1000 rpm for 1 min, and then incubated at room temperature of 25° C. for 15 min. • 2) 5 μL of the substrate working solution was added to the 384-well plate to initiate the kinase reaction, centrifuged at 1000 rpm for 1 min, and incubated at room temperature of 25° C. for 60 min. • 3) The final concentrations of the KHK-C kinase reaction system were 1 nM for KHK-C, 100 μM for ATP, 200 μM for D-Fructose, 50 mM for HEPES, 10 mM for MgCl2, and 0.01% for Brij35, and the final concentration of DMSO was 1%. • 4) The final concentrations of the test compounds were 10000 nM, 3333.33 nM, 1111.11 nM, 370.37 nM, 123.457 nM, 41.15 nM, 13.71 nM, 4.572 nM, 1.524 nM, 0.508 nM, and 0.169 nM, respectively. • 5) The final concentrations of the control drug were 1000 nM, 333.33 nM, 111.11 nM, 37.037 nM, 12.346 nM, 4.115 nM, 1.371 nM, 0.4572 nM, 0.1524 nM, 0.0508 nM, and 0.0169 nM, respectively. 3. Reaction Termination and Detection • 1) The 384-well plate was added with 10 μL of the ADP Glo reagent, centrifuged at 1000 rpm for 1 min, and then incubated at room temperature of 25° C. for 40 min. • 2) The 384-well plate was added with 20 μL of the kinase detection reagent, centrifuged at 1000 rpm for 1 min, and then incubated at room temperature of 25° C. for 40 min. • 3) After the reaction was completed, the […] value LUM was read on Envision. 4. Data Analysis The following equation was used to calculate the inhibition (% inh): […]

HepG2 cells = assay: Inhibition of production of fructose-1-phosphate induced by D-Fructose in HepG2 cells (LC-MS); format: cell-based; conditions: 30 min compound pre-incubation, D-Fructose 3 hours
Experimental: Experimental Protocol: 1. Cell Culture and Inoculation • 1) HepG2 cells in the logarithmic growth phase were collected and counted with a […]. The Trypan blue exclusion method was used to detect cell viability and ensure that cell viability is 90% or above. • 2) The concentration of HepG2 cells was adjusted, and 81 μL of the cell suspension in a FBS-free basal medium (starvation treatment) was add to a 96-well plate, with a cell inoculum amount of 5×10^4 cells per test well. • 3) The HepG2 cells in the 96-well plate were cultured overnight at 37° C., 5% CO2, and 95% humidity. 2. Administration • 1) Before administration, 9 μL of FBS was added to the test wells of the 96-well plate to stop the starvation treatment. • 2) 10× stock solutions of the individual test compounds were prepared by dilution in a 3-fold gradient to 8 concentrations, with the highest concentration of 100 μM. 10 μL of the test compound solutions was added to each well of the 96-well plate inoculated with the cells, in triplicate per test compound concentration. For the solvent control, 10 μL of 1% DMSO solution was added to each well, in triplicate. • 3) The cells in the 96-well plate added with the test compounds were incubated at 37° C., 5% CO2, and 95% humidity for 30 min. • 4) An 11-fold D-Fructose solution was prepared at the concentration of 220 mM. 10 μL of the D-Fructose solution was added to the 96-well plate inoculated with HepG2 cells per well, in triplicate. For the solvent control, 10 μL of 11% DPBS solution was added, in triplicate. • 5) The cells in the 96-well plate added with D-fructose were incubated at 37° C., 5% CO2, and 95% humidity for 3 hours. 3. Sample Treatment The medium in the 96-well plate was removed, and the cells in the 96-well plate were washed with cold DPBS (200 μl/well) for 3 times. 30 μL of cold 10 mM ammonium acetate (pH 7.4) was added into each well to lyse the cells (hypotonic lysis). After lysis on ice for 5 minutes, the cells were fully pipetted and the cell lysate was taken for LC-MS analysis. 4. Data Analysis The data were analyzed with GraphPad Prism 5.0 software, and fitted with nonlinear S-curve regression, so as to obtain a dose-effect curve to calculate the EC50 value. 5.

KHK-C [2] = biological target: T1, KHK-C; assay: Inhibitory activity against KHK-C kinase in vitro (ADP-Glo), Experimental Protocol I; format: biochemical; conditions: 1 nM KHK-C, 100 μM ATP, 200 μM D-Fructose, control drug top concentration 10000 nM
Experimental: 2. […] 3. Reaction Termination and Detection • 1) The 384-well plate was added with 10 μL of the ADP Glo reagent, centrifuged at 1000 rpm for 1 min, and then incubated at room temperature of 25° C. for 40 min. • 2) The 384-well plate was added with 20 μL of the kinase detection reagent, centrifuged at 1000 rpm for 1 min, and then incubated at room temperature of 25° C. for 40 min. • 3) After the reaction was completed, the […] value LUM was read on Envision. 4. Data Analysis The following equation was used to calculate the inhibition (% inh): […]

T1 sequence (P50053 whole entry): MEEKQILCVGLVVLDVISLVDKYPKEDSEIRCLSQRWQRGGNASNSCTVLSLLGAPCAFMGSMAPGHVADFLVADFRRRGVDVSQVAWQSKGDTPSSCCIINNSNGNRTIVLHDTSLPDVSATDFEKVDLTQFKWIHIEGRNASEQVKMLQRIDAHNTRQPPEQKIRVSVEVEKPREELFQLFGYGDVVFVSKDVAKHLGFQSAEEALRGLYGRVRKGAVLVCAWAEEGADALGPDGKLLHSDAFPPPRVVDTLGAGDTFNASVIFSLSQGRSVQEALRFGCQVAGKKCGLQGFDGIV

Row | IC50 (KHK-C [1]) [nM] | EC50 (HepG2 cells; Homo sapiens) [nM] | IC50 (KHK-C [2]) [nM] | EC50 (HepG2 cells) [nM] | SMILES
1 | 1.5 | 18.2 | – | – | C[C@H]1N(c2nc(N3C[C@@H]4[C@@H](CC(=O)O)[C@@H]4C3)c3c(n2)C(F)(F)CCC3)CC1(F)F (single isomer, unassigned) [Compound 4-2]
2 | – | 21.9 | – | – | C[C@H]1CCN1c1nc(N2C[C@@H]3[C@@H](CC(=O)O)[C@@H]3C2)c2c(n1)C(F)(F)CC2 [Compound 1, 2-((1R,5S,6R)-3-(7,7-difluoro-2-((S)-2-methylazetidin-1-yl)-6,7-dihydro-5H-cyclopenta[d]pyrimidin-4-yl)-3-azabicyclo[3.1.0]hexan-6-yl)acetic acid]
3 | – | 14.5 | 0.52 | – | C[C@H]1CCN1c1nc(N2C[C@@H]3[C@@H](CC(=O)O)[C@@H]3C2)c2c(n1)C(F)(F)CCC2 [Compound 2, 2-((1R,5S,6R)-3-(8,8-difluoro-2-((S)-2-methylazetidin-1-yl)-5,6,7,8-tetrahydroquinazolin-4-yl)-3-azabicyclo[3.1.0]hexan-6-yl)acetic acid]
4 | 0.73 | 7.3 | – | – | CC1C(F)CN1c1nc(N2C[C@@H]3[C@@H](CC(=O)O)[C@@H]3C2)c2c(n1)C(F)(F)CCC2 (stereo partly drawn) [Compound 3-1, 2-((1R,5S,6s)-3-(8,8-difluoro-2-(3-fluoro-2-methylazetidin-1-yl)-5,6,7,8-tetrahydroquinazolin-4-yl)-3-azabicyclo[3.1.0]hexan-6-yl)acetic acid]
5 | 2.2 | 11.8 | – | – | CC1N(c2nc(N3C[C@@H]4[C@@H](CC(=O)O)[C@@H]4C3)c3c(n2)C(F)(F)CCC3)CC1(F)F (stereo partly drawn) [Compound 4-1, 2-((1R,5S,6s)-3-(2-(3,3-difluoro-2-methylazetidin-1-yl)-8,8-difluoro-5,6,7,8-tetrahydroquinazolin-4-yl)-3-azabicyclo[3.1.0]hexan-6-yl)acetic acid]
6 | 0.9 | 39 | – | – | CC1C(F)CN1c1nc(N2C[C@@H]3[C@@H](CC(=O)O)[C@@H]3C2)c2c(n1)C(F)(F)CC2 (stereo partly drawn) [Compound 6-1, 2-((1R,5S,6s)-3-(7,7-difluoro-2-(3-fluoro-2-methylazetidin-1-yl)-6,7-dihydro-5H-cyclopenta[d]pyrimidin-4-yl)-3-azabicyclo[3.1.0]hexan-6-yl)acetic acid]
7 | – | – | – | 169 | C[C@H]1CCN1c1nc(N2C[C@@H]3C(CC(=O)O)[C@@H]3C2)cc(C(F)(F)F)n1 (stereo partly drawn) [PF-06835919, reference compound]
